Measured values as given in ChEMBL document CHEMBL5120794, “Development of 5-hydroxyl-1-azabenzanthrone derivatives as dual binding site and selective acetylcholinesterase inhibitors” (Eur J Med Chem, 2022).
The source made the active and inactive calls. No cut-off for these calls is given here.

Legend:
PC-12 = test: Cytoprotective activity against H2O2-induced oxidative damage in rat PC-12 cells assessed as cell viability at 1 uM preincubated for 4 hrs followed by H2O2 treatment for another 24 hrs by MTT assay; format: functional, cell-based; conditions: time 28.0 hrs
Cholinesterase = Cholinesterase (Equus caballus, UniProt P81908)
Chain of Cholinesterase (P81908 whole entry): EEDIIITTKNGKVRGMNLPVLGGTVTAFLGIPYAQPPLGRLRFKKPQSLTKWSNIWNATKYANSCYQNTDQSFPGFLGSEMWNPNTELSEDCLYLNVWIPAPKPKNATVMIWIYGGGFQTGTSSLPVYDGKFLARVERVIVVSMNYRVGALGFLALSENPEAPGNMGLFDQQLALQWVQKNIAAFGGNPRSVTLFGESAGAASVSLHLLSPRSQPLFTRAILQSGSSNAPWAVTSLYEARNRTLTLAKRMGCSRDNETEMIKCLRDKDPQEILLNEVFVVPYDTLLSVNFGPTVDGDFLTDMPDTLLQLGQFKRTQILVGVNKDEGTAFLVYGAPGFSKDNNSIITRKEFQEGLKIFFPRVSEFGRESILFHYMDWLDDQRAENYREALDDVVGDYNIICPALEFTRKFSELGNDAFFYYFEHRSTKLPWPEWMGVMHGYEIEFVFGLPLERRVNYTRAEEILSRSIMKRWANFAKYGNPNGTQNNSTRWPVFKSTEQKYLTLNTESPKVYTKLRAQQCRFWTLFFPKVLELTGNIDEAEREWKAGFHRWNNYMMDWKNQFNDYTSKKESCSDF
Description: Inhibition of equine serum BchE using S-butyryl thiocholine iodide as substrate incubated for 10 mins followed by substrate addition measured at 0 to 180 secs by Ellman's method

[1] = target: Amyloid-beta precursor protein (Homo sapiens) (UniProt P05067); test: Inhibition of amyloid beta (1 to 42) (unknown origin) self-induced aggregation at 25 uM measured after 46 to 48 hrs by Thioflavin binding assay relative to control; conditions: time 46-48 hrs
Chain of Amyloid-beta precursor protein (Homo sapiens) (P05067 whole entry): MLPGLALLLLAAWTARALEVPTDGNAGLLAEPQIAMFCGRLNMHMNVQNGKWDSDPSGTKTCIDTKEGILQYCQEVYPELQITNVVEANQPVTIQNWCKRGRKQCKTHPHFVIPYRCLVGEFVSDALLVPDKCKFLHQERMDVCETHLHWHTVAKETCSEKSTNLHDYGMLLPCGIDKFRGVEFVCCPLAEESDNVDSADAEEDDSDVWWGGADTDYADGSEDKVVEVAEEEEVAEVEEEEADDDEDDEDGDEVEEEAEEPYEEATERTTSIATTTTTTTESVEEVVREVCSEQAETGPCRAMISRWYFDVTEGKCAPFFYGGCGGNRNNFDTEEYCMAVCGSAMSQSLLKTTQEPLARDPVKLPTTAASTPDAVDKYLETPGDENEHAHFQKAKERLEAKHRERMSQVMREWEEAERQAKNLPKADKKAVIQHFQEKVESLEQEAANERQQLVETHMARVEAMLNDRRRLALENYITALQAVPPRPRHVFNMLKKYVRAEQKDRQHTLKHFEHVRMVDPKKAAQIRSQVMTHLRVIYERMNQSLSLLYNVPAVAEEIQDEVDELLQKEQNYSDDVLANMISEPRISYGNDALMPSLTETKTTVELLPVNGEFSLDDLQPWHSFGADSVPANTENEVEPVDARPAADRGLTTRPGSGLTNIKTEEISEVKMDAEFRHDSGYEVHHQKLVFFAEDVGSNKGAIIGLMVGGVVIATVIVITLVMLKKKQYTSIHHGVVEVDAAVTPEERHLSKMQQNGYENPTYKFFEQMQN

Acetylcholinesterase = Acetylcholinesterase (Electrophorus electricus, UniProt O42275); test: Inhibition of Electrophorus electricus AchE using […] as substrate incubated for 10 mins followed by substrate addition measured at 0 to 180 secs by Ellman's method
Chain of Acetylcholinesterase (O42275 whole entry): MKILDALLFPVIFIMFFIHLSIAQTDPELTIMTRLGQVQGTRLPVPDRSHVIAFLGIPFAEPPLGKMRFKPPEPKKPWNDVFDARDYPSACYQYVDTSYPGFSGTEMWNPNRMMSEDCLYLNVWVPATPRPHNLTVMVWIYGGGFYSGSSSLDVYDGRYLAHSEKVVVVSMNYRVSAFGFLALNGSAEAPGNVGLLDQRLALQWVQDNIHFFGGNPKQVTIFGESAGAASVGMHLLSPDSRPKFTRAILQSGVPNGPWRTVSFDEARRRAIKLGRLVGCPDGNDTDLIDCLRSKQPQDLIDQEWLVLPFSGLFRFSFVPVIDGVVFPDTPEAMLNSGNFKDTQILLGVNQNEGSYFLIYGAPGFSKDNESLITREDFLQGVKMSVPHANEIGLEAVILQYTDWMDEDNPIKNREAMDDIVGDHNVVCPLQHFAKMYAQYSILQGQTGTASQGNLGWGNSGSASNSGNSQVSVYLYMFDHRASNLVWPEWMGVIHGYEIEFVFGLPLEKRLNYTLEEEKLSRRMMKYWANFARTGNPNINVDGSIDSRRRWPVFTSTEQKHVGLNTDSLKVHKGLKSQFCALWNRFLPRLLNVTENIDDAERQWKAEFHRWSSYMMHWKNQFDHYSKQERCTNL

Row | SMILES | Activity (PC-12) | IC50 (Cholinesterase) [nM] | inhibition [1] [%] | IC50 (Acetylcholinesterase) [nM]
1 | O=C1c2ccccc2-c2nccc3cc(OCCN4CCN(CCO)CC4)cc1c23 | Active | > 100000 | 14.9 | 420
2 | O=C1c2ccccc2-c2nccc3cc(OCCCCN4CCN(CCO)CC4)cc1c23 | Active | > 100000 | 26.1 | 920
3 | CN1CCN(CCCCOc2cc3c4c(nccc4c2)-c2ccccc2C3=O)CC1 | Active | > 100000 | 25.4 | 1410
4 | CC1CCCCN1CCCCOc1cc2c3c(nccc3c1)-c1ccccc1C2=O (stereo not given) | Active | 4150 | 34.8 | 250
5 | O=C1c2ccccc2-c2nccc3cc(OCCCN4CCOCC4)cc1c23 | Active | > 100000 | 23.5 | 10200
